Measured values: the supplement of paper PMC13207355

How the values were obtained:
Details in all cases: exposure time: 72 h
E28 [1] = patient-derived glioblastoma stem cells of classical subtype; test: surviving fraction (nuclei count normalised to DMSO); higher = more cells surviving (less toxic)
E31 [2] = patient-derived glioblastoma stem cells of proneural subtype; test: as above
E21 [3] = patient-derived glioblastoma stem cells of mesenchymal subtype; test: as above
E57 [4] = patient-derived glioblastoma stem cells of mesenchymal subtype; test: as above
FT3469 [5] = normal neural stem cell line; test: as above
E34 [6] = patient-derived glioblastoma stem cells of proneural subtype; test: as above
E13 [7] = patient-derived glioblastoma stem cells of classical subtype; test: as above
E28 [8] = test: phenotypic distance (Euclidean, principal components) from DMSO controls (arbitrary units); higher = stronger morphological change
E31 [9] = test: as above
E21 [10] = test: as above
E57 [11] = test: as above
FT3469 [12] = test: as above
E34 [13] = test: as above
E13 [14] = test: as above
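Throughout, for phenotypic distance (Euclidean, principal components) from DMSO controls: cell Painting imaging in 384-well plates, CellProfiler features reduced to at least 20 principal components, Euclidean distance versus same-plate DMSO vehicle wells (0.1% v/v), median over six images per well.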
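Throughout, for surviving fraction (nuclei count normalised to DMSO): nuclei counted by high-content imaging of Hoechst-stained cells in laminin-coated 384-well plates, relative to 0.1% DMSO vehicle wells, with staurosporine as cell-death control.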

O=C(Nc1ccc([N+](=O)[O-])cc1Cl)c1cc(Cl)ccc1O [Niclosamide]
Details	phenotypic distance	surviving fraction
E13 [7], 4.1 nM	–	0.397
E13 [7], 12.3 nM	–	0.192
E13 [7], 37 nM	–	0.156
E13 [7], 111.1 nM	–	0.163
E13 [7], 333.3 nM	–	0.148
E13 [7], 1000 nM	–	0.132
E13 [7], 3000 nM	–	0.117
E13 [14], 4.1 nM	4.25	–
E13 [14], 12.3 nM	4.77	–
E13 [14], 37 nM	6.86	–
E13 [14], 111.1 nM	9.47	–
E13 [14], 333.3 nM	8.21	–
E13 [14], 1000 nM	8.6	–
E13 [14], 3000 nM	8.06	–
E21 [3], 4.1 nM	–	0.602
E21 [3], 12.3 nM	–	0.363
E21 [3], 37 nM	–	0.0551
E21 [3], 111.1 nM	–	0.0103
E21 [3], 333.3 nM	–	0.0028
E21 [3], 1000 nM	–	0.00933
E21 [3], 3000 nM	–	0.00467
E21 [10], 4.1 nM	4.72	–
E21 [10], 12.3 nM	6.44	–
E21 [10], 37 nM	6.49	–
E21 [10], 111.1 nM	11.8	–
E21 [10], 333.3 nM	11.9	–
E21 [10], 1000 nM	12.4	–
E21 [10], 3000 nM	14	–
E28 [1], 4.1 nM	–	0.616
E28 [1], 12.3 nM	–	0.446
E28 [1], 37 nM	–	0.147
E28 [1], 111.1 nM	–	0.0916
E28 [1], 333.3 nM	–	0.0952
E28 [1], 1000 nM	–	0.0557
E28 [1], 3000 nM	–	0.0898
E28 [8], 4.1 nM	1.99	–
E28 [8], 12.3 nM	2.43	–
E28 [8], 37 nM	6.04	–
E28 [8], 111.1 nM	8.95	–
E28 [8], 333.3 nM	7.22	–
E28 [8], 1000 nM	8.51	–
E28 [8], 3000 nM	7.9	–
E31 [2], 4.1 nM	–	0.927
E31 [2], 12.3 nM	–	0.495
E31 [2], 37 nM	–	0.132
E31 [2], 111.1 nM	–	0.072
E31 [2], 333.3 nM	–	0.0854
E31 [2], 1000 nM	–	0.0502
E31 [2], 3000 nM	–	0.0703
E31 [9], 4.1 nM	3.09	–
E31 [9], 12.3 nM	4.78	–
E31 [9], 37 nM	5.57	–
E31 [9], 111.1 nM	10.1	–
E31 [9], 333.3 nM	8.82	–
E31 [9], 1000 nM	9.48	–
E31 [9], 3000 nM	7.83	–
E34 [6], 4.1 nM	–	0.708
E34 [6], 12.3 nM	–	0.542
E34 [6], 37 nM	–	0.562
E34 [6], 111.1 nM	–	0.417
E34 [6], 333.3 nM	–	0.406
E34 [6], 1000 nM	–	0.452
E34 [6], 3000 nM	–	0.331
E34 [13], 4.1 nM	1.82	–
E34 [13], 12.3 nM	2.56	–
E34 [13], 37 nM	5.44	–
E34 [13], 111.1 nM	8.06	–
E34 [13], 333.3 nM	7.5	–
E34 [13], 1000 nM	7.96	–
E34 [13], 3000 nM	7.89	–
E57 [4], 4.1 nM	–	0.572
E57 [4], 12.3 nM	–	0.303
E57 [4], 37 nM	–	0.2
E57 [4], 111.1 nM	–	0.176
E57 [4], 333.3 nM	–	0.166
E57 [4], 1000 nM	–	0.136
E57 [4], 3000 nM	–	0.149
E57 [11], 4.1 nM	4.23	–
E57 [11], 12.3 nM	7.26	–
E57 [11], 37 nM	6.17	–
E57 [11], 111.1 nM	4.83	–
E57 [11], 333.3 nM	6.2	–
E57 [11], 1000 nM	6.94	–
E57 [11], 3000 nM	6.28	–
FT3469 [5], 4.1 nM	–	0.772
FT3469 [5], 12.3 nM	–	0.654
FT3469 [5], 37 nM	–	0.297
FT3469 [5], 111.1 nM	–	0.244
FT3469 [5], 333.3 nM	–	0.227
FT3469 [5], 1000 nM	–	0.262
FT3469 [5], 3000 nM	–	0.28
FT3469 [12], 4.1 nM	2.28	–
FT3469 [12], 12.3 nM	3.48	–
FT3469 [12], 37 nM	7.75	–
FT3469 [12], 111.1 nM	7.91	–
FT3469 [12], 333.3 nM	9.29	–
FT3469 [12], 1000 nM	9.03	–
FT3469 [12], 3000 nM	10.3	–

NC(=O)c1cccc2cn(-c3ccc([C@@H]4CCCNC4)cc3)nc12 [Niraparib]
Details	phenotypic distance	surviving fraction
E13 [7], 4.1 nM	–	0.923
E13 [7], 12.3 nM	–	0.914
E13 [7], 37 nM	–	0.942
E13 [7], 111.1 nM	–	0.857
E13 [7], 333.3 nM	–	0.967
E13 [7], 1000 nM	–	0.966
E13 [7], 3000 nM	–	0.811
E13 [14], 4.1 nM	6.4	–
E13 [14], 12.3 nM	0.843	–
E13 [14], 37 nM	0.647	–
E13 [14], 111.1 nM	1.65	–
E13 [14], 333.3 nM	1.62	–
E13 [14], 1000 nM	0.782	–
E13 [14], 3000 nM	1.33	–
E21 [3], 4.1 nM	–	0.89
E21 [3], 12.3 nM	–	0.869
E21 [3], 37 nM	–	0.882
E21 [3], 111.1 nM	–	0.923
E21 [3], 333.3 nM	–	0.916
E21 [3], 1000 nM	–	0.927
E21 [3], 3000 nM	–	0.942
E21 [10], 4.1 nM	1	–
E21 [10], 12.3 nM	1.03	–
E21 [10], 37 nM	0.998	–
E21 [10], 111.1 nM	0.66	–
E21 [10], 333.3 nM	0.751	–
E21 [10], 1000 nM	3.25	–
E21 [10], 3000 nM	0.988	–
E28 [1], 4.1 nM	–	0.905
E28 [1], 12.3 nM	–	0.975
E28 [1], 37 nM	–	0.875
E28 [1], 111.1 nM	–	0.868
E28 [1], 333.3 nM	–	0.922
E28 [1], 1000 nM	–	0.84
E28 [1], 3000 nM	–	0.603
E28 [8], 4.1 nM	0.932	–
E28 [8], 12.3 nM	0.689	–
E28 [8], 37 nM	1.02	–
E28 [8], 111.1 nM	0.861	–
E28 [8], 333.3 nM	0.791	–
E28 [8], 1000 nM	1.23	–
E28 [8], 3000 nM	2.78	–
E31 [2], 4.1 nM	–	1.04
E31 [2], 12.3 nM	–	0.782
E31 [2], 37 nM	–	1
E31 [2], 111.1 nM	–	0.896
E31 [2], 333.3 nM	–	0.939
E31 [2], 1000 nM	–	0.886
E31 [2], 3000 nM	–	0.64
E31 [9], 4.1 nM	0.907	–
E31 [9], 12.3 nM	1.29	–
E31 [9], 37 nM	1.19	–
E31 [9], 111.1 nM	0.995	–
E31 [9], 333.3 nM	0.875	–
E31 [9], 1000 nM	0.834	–
E31 [9], 3000 nM	2.29	–
E34 [6], 4.1 nM	–	0.963
E34 [6], 12.3 nM	–	0.904
E34 [6], 37 nM	–	0.902
E34 [6], 111.1 nM	–	0.971
E34 [6], 333.3 nM	–	0.861
E34 [6], 1000 nM	–	0.924
E34 [6], 3000 nM	–	0.737
E34 [13], 4.1 nM	3.06	–
E34 [13], 12.3 nM	0.78	–
E34 [13], 37 nM	0.587	–
E34 [13], 111.1 nM	0.691	–
E34 [13], 333.3 nM	0.654	–
E34 [13], 1000 nM	0.893	–
E34 [13], 3000 nM	1.77	–
E57 [4], 4.1 nM	–	0.996
E57 [4], 12.3 nM	–	0.917
E57 [4], 37 nM	–	0.93
E57 [4], 111.1 nM	–	0.833
E57 [4], 333.3 nM	–	0.951
E57 [4], 1000 nM	–	0.921
E57 [4], 3000 nM	–	0.826
E57 [11], 4.1 nM	0.553	–
E57 [11], 12.3 nM	0.936	–
E57 [11], 37 nM	0.684	–
E57 [11], 111.1 nM	0.604	–
E57 [11], 333.3 nM	0.582	–
E57 [11], 1000 nM	0.667	–
E57 [11], 3000 nM	1.51	–
FT3469 [5], 4.1 nM	–	0.84
FT3469 [5], 12.3 nM	–	0.901
FT3469 [5], 37 nM	–	0.853
FT3469 [5], 111.1 nM	–	0.918
FT3469 [5], 333.3 nM	–	0.931
FT3469 [5], 1000 nM	–	0.916
FT3469 [5], 3000 nM	–	0.743
FT3469 [12], 4.1 nM	1.72	–
FT3469 [12], 12.3 nM	0.905	–
FT3469 [12], 37 nM	1.21	–
FT3469 [12], 111.1 nM	0.978	–
FT3469 [12], 333.3 nM	0.746	–
FT3469 [12], 1000 nM	1.12	–
FT3469 [12], 3000 nM	2.12	–
